Data taken from patent US12404268B2, “2-heteroaryl aminoquinazolinone derivative” (Sumitomo Pharma Co., Ltd., priority 2020, dated 2025).
pIC50: −log10 of the molar value.

The compounds below were run on neurons induced to differentiate from SCN1A gene deficient human iPS cells (assay: Test for measuring hyperexcitation suppression activity (spontaneous calcium oscillation frequency)). Conditions: Homo sapiens, Neuron; @0.1 μM; read-out: inhibition rate.
Assay type: cell-based
Excerpt: Test for Measuring Hyperexcitation Suppression Activity Using Neurons Induced to Differentiate from SCN1A Gene Deficient Human iPS Cells
(1) Induction of Differentiation from Human iPS cells to Neurons
Half of the culture solution was exchanged once every 3 to 4 days.
(2) Fluorescent Calcium Probe Treatment, Addition of Compound, and Evaluation of Intracellular Calcium Concentration
Half of the culture solution was removed on day 60 from induction of differentiation or thereafter. A medium for measurement comprising a fluorescent calcium probe (Molecular Device, product name: FLIPR Calcium 6 Assay Bulk Kit, cat #R8191) was added at an amount equal to the remaining medium. The culture was left standing for 30 minutes and subjected to measurement.
The test compounds were serially diluted with a dimethyl sulfoxide (DMSO) solution so that the final concentration would be 0.1 to 100 μM to prepare a concentrate with a concentration that is 6-fold of the final concentration.
The intensity of fluorescence of a calcium probe was measured over time with FDSS7000EX (Hamamatsu Photonics) to evaluate the change in intracellular calcium concentrations. First, the intensity of fluorescence was measured for 2 minutes. The compound solutions were then added using FDSS7000EX for an additional 8 minute measurement of fluorescence intensity. The frequency of spontaneous calcium oscillation was quantified as an indicator of nerve excitation. With the frequency for 2 minutes before the addition of the compound solutions as 100%, the ratio of frequency for the last 2 minutes after addition of the compound solutions was calculated.

| Structure (SMILES) | inhibition at 0.1 µM [%] |
| --- | --- |
| O=c1c2cc(F)ccc2nc(Nc2cncc(F)c2)n1-c1ccccc1F [Example 111, 6-fluoro-3-(2-fluorophenyl)-2-((5-fluoropyridin-3-yl)amino)quinazolin-4(3H)-one] | 35 |
| O=c1c2ccccc2nc(Nc2cccn3cncc23)n1-c1ccccc1 [Example 69, 2-(imidazo[1,5-a]pyridin-8-ylamino)-3-phenylquinazolin-4(3H)-one] | 39 |
| Cc1ccccc1-n1c(Nc2cccnc2)nc2ccc(F)cc2c1=O [Example 107, 6-fluoro-2-(pyridin-3-ylamino)-3-(o-tolyl)quinazolin-4(3H)-one] | 89 |

Same assay, conditions: Homo sapiens, Neuron; @1 μM; read-out: inhibition rate

| Structure (SMILES) | inhibition at 1 µM [%] |
| --- | --- |
| O=c1c2cc(F)ccc2nc(Nc2cncc(Cl)c2)n1-c1ccccc1 [Example 45, 2-((5-chloropyridin-3-yl)amino)-6-fluoro-3-phenylquinazolin-4(3H)-one] | 100 |
| CC(C)n1c(Nc2cccnc2)nc2ccc(F)cc2c1=O [Example 59] | 39 |
| O=c1c2cc(F)ccc2nc(Nc2ccc(F)cn2)n1-c1ccccc1 [Example 128] | 69 |
| O=c1c2cc(F)ccc2nc(Nc2cccnc2)n1-c1cccc(Cl)c1 [Example 134] | 56 |
| O=c1c2ccccc2nc(Nc2cccc3cncn23)n1-c1ccccc1 [Example 63] | 23 |
| N#Cc1cncc(Nc2nc3ccc(Cl)cc3c(=O)n2-c2ccccc2)c1 [Example 41, 5-((6-chloro-4-oxo-3-phenyl-3,4-dihydroquinazolin-2-yl)amino)nicotinonitrile] | 95 |
| O=c1c2cc(F)ccc2nc(Nc2cccnc2)n1-c1ccccc1Cl [Example 145, 3-(2-chlorophenyl)-6-fluoro-2-(pyridin-3-ylamino)quinazolin-4(3H)-one] | 100 |
| COc1ccccc1-n1c(Nc2cccnc2)nc2ccc(F)cc2c1=O [Example 142, 6-fluoro-3-(2-methoxyphenyl)-2-(pyridin-3-ylamino)quinazolin-4(3H)-one] | 86 |
| O=c1c2ccccc2nc(Nc2cccnc2)n1C12CCN(CC1)CC2 [Example 119] | 20 |
| Cc1ccnc(Nc2nc3ccc(F)cc3c(=O)n2-c2ccccc2)c1 [Example 125] | 29 |
| O=c1c2cc(F)ccc2nc(Nc2cccnc2)n1C1CCC(F)(F)CC1 [Example 62] | 43 |
| O=c1c2ccccc2nc(Nc2ccn3ccnc3c2)n1-c1ccccc1 [Example 70] | 58 |
| CN1[C@@H]2CC[C@H]1C[C@H](n1c(Nc3cccnc3)nc3ccccc3c1=O)C2 [Example 76] | 35 |
| Cn1ncc2ccc(Nc3nc4ccccc4c(=O)n3-c3ccccc3)cc21 [Example 54, 2-((1-methyl-1H-indazol-6-yl)amino)-3-phenylquinazolin-4(3H)-one] | 95 |
| O=c1c2cc(F)ccc2nc(Nc2cnccn2)n1-c1ccccc1 [Example 39, 6-fluoro-3-phenyl-2-(pyrazin-2-ylamino)quinazolin-4(3H)-one] | 100 |
| COc1cccc(Nc2nc3ccc(F)cc3c(=O)n2-c2ccccc2)n1 [Example 130] | 44 |
| Cc1ccc(-n2c(Nc3cccnc3)nc3ccc(F)cc3c2=O)cc1 [Example 105, 6-fluoro-2-(pyridin-3-ylamino)-3-(p-tolyl)quinazolin-4(3H)-one] | 100 |
| O=c1c2ccccc2nc(Nc2ccc3ncoc3c2)n1-c1ccccc1 [Example 98] | 51 |
| Cc1cnccc1Nc1nc2ccc(F)cc2c(=O)n1-c1ccccc1 [Example 132] | 38 |

Same assay, conditions: Homo sapiens, Neuron; @10 μM; read-out: inhibition rate

| Structure (SMILES) | inhibition at 10 µM [%] |
| --- | --- |
| O=c1c2cc(F)ccc2nc(Nc2ccsc2)n1-c1ccccc1 [Example 169] | 100 |
| O=c1c2cc(F)ccc2nc(Nc2cccnc2)n1-c1cncs1 [Example 160] | 58 |
| Cc1nn(C)c(C)c1-n1c(Nc2cccnc2)nc2ccc(F)cc2c1=O [Example 154] | 98 |
| O=c1c2cc(Cl)ccc2nc(Nc2ccc(F)cn2)n1-c1ccccc1 [Example 25] | 82 |
| CN1CCC(n2c(Nc3cccnc3)nc3ccc(F)cc3c2=O)CC1 [Example 101] | 6 |
| Cn1ccc(Nc2nc3ccc(F)cc3c(=O)n2-c2ccccc2)c1 [Example 182] | 72 |
| Cc1nccc(Nc2nc3ccc(Cl)cc3c(=O)n2-c2ccccc2)n1 [Example 36] | 32 |
| O=c1c2cc(F)cnc2nc(Nc2cccnc2)n1-c1ccccc1 [Example 162] | 39 |
| O=c1c2cc(F)ccc2nc(Nc2cccnc2)n1CCN1CCCC1 [Example 159] | 56 |
| NCCn1c(Nc2cccnc2)nc2ccc(F)cc2c1=O [Example 179] | 98 |
| O=c1c2ccccc2nc(Nc2ccon2)n1-c1ccccc1 [Example 232] | 73 |
| O=c1c2ccccc2nc(Nc2cccc3cnoc23)n1-c1ccccc1 [Example 67] | 100 |

Same assay, conditions: Homo sapiens, Neuron; @100 μM; read-out: inhibition rate

| Structure (SMILES) | inhibition at 100 µM [%] |
| --- | --- |
| CO[C@H]1CN(C)CC[C@H]1n1c(Nc2cccnc2)nc2ccc(F)cc2c1=O [Example 183] | 13 |
| O=c1c2cc(F)ccc2nc(Nc2cnoc2)n1-c1ccccc1 [Example 172] | 100 |
| Cc1cccnc1Nc1nc2ccc(F)cc2c(=O)n1-c1ccccc1 [Example 136] | 5 |
| O=c1c2cc(F)ccc2nc(Nc2cccnc2)n1C1CCN(C2CC2)CC1 [Example 170] | 100 |

Same assay, conditions: Neuron; SCN1A gene deficient human iPS cell-derived neurons; FLIPR Calcium 6, FDSS7000EX; read-out: IC50 (50% inhibitory concentration, frequency of spontaneous calcium oscillation)

| pIC50 | Structure (SMILES) |
| --- | --- |
| < 5.00 | Cc1cc2nc(Nc3cccnc3)n(-c3ccccc3)c(=O)c2cn1 [Example 193] |
| < 5.00 | O=c1c2cc(F)ccc2nc(Nc2cccnc2)n1C1(c2ccccc2)CCC1 [Example 205] |
| < 4.00 | O=c1c2cc(F)ccc2nc(Nc2cccnc2)n1C1(c2ccccn2)CC1 [Example 206] |
| < 5.00 | Cc1cnc2nc(Nc3cccnc3)n(-c3ccccc3)c(=O)c2c1 [Example 202] |
| < 5.00 | O=c1c2cc(F)ncc2nc(Nc2cccnc2)n1-c1ccccc1 [Example 190] |
| 6.22 | O=c1c2cc(Cl)ccc2nc(Nc2cccnn2)n1-c1ccccc1 [Example 9] |
| < 4.00 | Cc1cccc2nc(Nc3cccnc3)n(-c3ccccc3)c(=O)c12 [Example 223] |
| < 5.00 | COc1cccnc1Nc1nc2ccc(F)cc2c(=O)n1-c1ccccc1 [Example 188] |
| < 4.00 | CN1C[C@H]2CC[C@@H](C1)[C@@H]2n1c(Nc2cccnc2)nc2ccc(F)cc2c1=O [Example 208] |
| < 5.00 | Cc1noc(C)c1-n1c(Nc2cccnc2)nc2ccc(F)cc2c1=O [Example 195] |
| 5.24 | O=c1c2cc(Cl)ccc2nc(Nc2cnccc2C(F)(F)F)n1-c1ccccc1 [Example 11] |
| < 5.00 | C[C@H]1CC[C@H](n2c(Nc3cccnc3)nc3ccc(F)cc3c2=O)CC1 [Example 201] |
| < 4.00 | COc1ccc2c(=O)n(-c3ccccc3)c(Nc3cccnc3)nc2c1 [Example 225] |
| < 5.00 | CN(C)CCn1c(Nc2cccnc2)nc2ccc(F)cc2c1=O [Example 207] |
| < 5.00 | Cn1cnc(Nc2nc3ccccc3c(=O)n2-c2ccccc2)c1 [Example 231] |
| 6.40 | O=c1c2cc(Cl)ccc2nc(Nc2cncnc2)n1-c1ccccc1 [Example 6] |
| < 4.00 | COc1cc(Nc2nc3ccc(F)cc3c(=O)n2-c2ccccc2)ccn1 [Example 227] |
| < 5.00 | O=c1c2cc(F)ccc2nc(Nc2cccnc2)n1C1COC1 [Example 204] |
